Data from patent publication US11331271B2, “Buccal, sublingual and intranasal delivery of fospropofol” (The Johns Hopkins University, priority 2016, dated 2022).

Assays:
[1] = Intranasal delivery of fospropofol in monkeys: plasma and CSF levels; assay type: in vivo, monkey
Experimental: More particularly, in this example, monkeys were dosed with 50 mg fospropofol by intranasal administration. Plasma and cerebrospinal fluid (CSF) were collected before treatment (graphed as t=0), 15 minutes, 30 minutes, 1 hr, and 2 hr. Samples were analyzed for propofol and fospropofol by LC/MS. […] These samples are near the limit of quantification. FIGS. 11A and 11B show the data in nM and ng/mL scales, respectively.

[2] = Buccal delivery of fospropofol in monkeys: plasma and CSF levels; assay type: in vivo, monkey
Experimental: In this example, monkeys were dosed with 50 mg fospropofol by buccal administration. Plasma and CSF were collected before treatment (graphed as t=0), 15 minutes, 30 minutes, 1 hr and 2 hr. Samples were analyzed for propofol and fospropofol by LCMS.

[3] = Pharmacokinetic studies in rats: fospropofol and propofol in plasma after IV, PO or ID fospropofol; settings: for F of fospropofol (vs 5 mg/kg IV) / F of propofol (vs 5 mg/kg IV fospropofol): rats
Experimental: Male Sprague-Dawley rats (Charles River, Md., USA) weighing 200-250 g were used, unless otherwise noted. Animals were housed in groups of three-inch suspended polycarbonate cages (18-inches long, 9-inches wide and 9-inches high) under a 12-h light/dark cycle. Food (Harlan/Teklab) and water (filtered and delivered via an automatic watering system) were provided ad libitum. All procedures were conducted in compliance with the laws, regulations and guidelines of the National Institutes of Health (NIH/PHS) and with approval from the local Animal Care and Use committee.
For animal studies, a fospropofol dosing solution was made by dissolving powder in water (for oral and intra-duodenal administration) or saline (for intravenous administration) into an administration volume of 1 or 2 mL/kg, as noted.
Male Sprague-Dawley rats (225-250 g) underwent implantation with indwelling jugular vein catheters for plasma sampling. Animals receiving intravenous (IV) drug administration also underwent femoral vein catheterization and, after full recovery were attached to an electronic infusion pump and administered vehicle or various concentrations of fospropofol in 1 mL total volume by gradual constant rate infusion over 10 min. Intraduodenal (ID) administration was via previously implanted catheters (HILLTOP Labs, PA) in a constant volume of 2 mL/kg body weight, by slow infusion. Oral administration (PO) was performed via a curved bulb-tipped feeding gavage tube attached to a syringe inserted carefully through the oesophagus via the side of the mouth of manually restrained rats using an administration volume of 1 mL/kg. On the day of testing, control blood samples were taken from the jugular vein prior to dosing of test compounds in conscious rats. In these studies, intravenous doses were based on previously reported behavioral and pharmacokinetic studies with fospropofol. The PO and ID doses were established based on preliminary experiments with behavioral observation, using higher doses based on lower expected oral bioavailability.
After fospropofol administration, blood samples (0.5 mL) were taken at 5, 15, 30, 45, 60, 120, 240 and 360 min post dose. An equivalent volume of blood taken from donor rats of the same strain was administered after each blood sample withdrawal, in an effort to maintain blood volume as previously described (Skrajnar, et al., 2009; Moghaddam, et al., 2002; Choi, et al., 2007). Approximately 0.05 mL of 200 mg/mL of sodium orthovanadate (SOV) solution was added to the heparinized blood collection tubes prior to blood collection to prevent ex vivo conversion via alkaline phosphatases (ALP). The blood samples were mixed, cooled and subsequently centrifuged at 3,000 rpm and 4° C. for 10 min within 30 min of collection. Plasma samples were stored at −20° C. until analysis.
For fospropofol analysis, fospropofol-d6 (internal standard prepared in 1.0 M ammonium acetate buffer) was added to the plasma samples (rat or human: 0.05 mL) and subsequently extracted using a solid phase extraction (SPE). The SPE cartridges were conditioned by gravity with methanol and 1.0 M ammonium acetate solution in water. The plasma samples with internal standard were loaded on the cartridges, washed with water and 10% methanol/water and eluted with methanol. The tubes were then evaporated under nitrogen and the residues reconstituted with 50/50 methanol/25 mM ammonium acetate in deionized water. The sample extract was then injected onto a reversed phase HPLC Zorbax Eclipse XDB-C18 column. The separated analytes were detected using tandem mass spectrometry (MS/MS) detection.

[4] = assay type: in vitro ADME
Experimental: The SPE cartridges were conditioned by gravity with methanol and 1.0 M ammonium acetate solution in water. The plasma samples with internal standard were loaded on the cartridges, washed with water and 10% methanol/water and eluted with methanol. The tubes were then evaporated under nitrogen and the residues reconstituted with 50/50 methanol/25 mM ammonium acetate in deionized water. The sample extract was then injected onto a reversed phase HPLC Zorbax Eclipse XDB-C18 column. The separated analytes were detected using tandem mass spectrometry (MS/MS) detection. […] The assays were linear with correlation coefficient of (R^2)>0.99 over the range of 10-2,000 ng/mL for rat plasma and 5-1,000 ng/mL for human plasma.
In brief, 4-[tert-octyl] phenol, (internal standard) was added to the plasma samples (0.05 mL for rat or 0.2 mL for human) and extracted using a 3M Empore C-18-SD 4 mm SPE cartridge (Millipore, Billerica, Mass., USA). […] The final eluants (˜0.3 mL) were diluted with 0.3 mL of water, and injected onto an HPLC system equipped with a C-18 analytical column (5 μm, 150×3.9 mm) and fluorescence detector set at excitation and emission wave lengths of 275 and 310 nm, respectively. […] All rat and human study samples in this study were analyzed without exceeding the stability sample integrity during validation of the methods.

[5] = male, Sprague-Dawley, rat, plasma, 30 mg/kg
[6] = male, Sprague-Dawley, rat, plasma, 100 mg/kg
[7] = male, Sprague-Dawley, rat, plasma, iv, 5 mg/kg
[8] = male, Sprague-Dawley, rat, plasma, po, 20 mg/kg
[9] = male, Sprague-Dawley, rat, plasma, po, 100 mg/kg

CC(C)c1cccc(C(C)C)c1OCOP(=O)(O)O [fospropofol]
fospropofol (prodrug) in plasma after intranasal administration ([1]; 50 mg intranasal): appreciable plasma concentrations of prodrug
fospropofol in CSF samples ([1]; 50 mg intranasal, only two samples): low nanomolar range
time of fospropofol peak in plasma ([2]; 50 mg buccal): 30 to 60 min
fospropofol plasma level by 2 hr ([2]; 50 mg buccal, 2 hr): below the limit of quantification
concentration at 15 min ([2]; monkey, CSF, other: buccal, 50 mg buccal, 15 minutes, read-out: CSF fospropofol, one high point): ~850 nM
Cmax ([2]; monkey, plasma, 50 mg buccal): ~150 nM
AUC(0-inf) [3, 5]: 50 ng·h/mL
AUC(0-t) [3, 5]: 44 ng·h/mL
Cmax [3, 5]: 170 ng/mL
half-life [3, 5]: 12.6 min
AUC(0-inf) [3, 6]: 650 ng·h/mL
AUC(0-t) [3, 6]: 644 ng·h/mL
Cmax [3, 6]: 3740 ng/mL
half-life [3, 6]: 13.8 min
AUC(0-inf) [3, 7]: 3150 ng·h/mL
AUC(0-t) [3, 7]: 3150 ng·h/mL
Cmax [3, 7]: 16300 ng/mL
Vd [3, 7]: 1.02 L/kg
clearance [3, 7]: 23 mL/min/kg
half-life [3, 7]: 29.4 min
AUC(0-inf) [3, 8]: 60 ng·h/mL
AUC(0-t) [3, 8]: 50 ng·h/mL
Cmax [3, 8]: 230 ng/mL
half-life [3, 8]: 11.4 min
AUC(0-inf) [3, 9]: 2180 ng·h/mL
AUC(0-t) [3, 9]: 2160 ng·h/mL
Cmax [3, 9]: 9230 ng/mL
half-life [3, 9]: 29.4 min
F of fospropofol (vs 5 mg/kg IV) ([3]; fospropofol 20 mg/kg PO): 0.448%
F of fospropofol (vs 5 mg/kg IV) ([3]; fospropofol 30 mg/kg ID): 0.264%
F of fospropofol (vs 5 mg/kg IV) ([3]; fospropofol 100 mg/kg ID): 1.03%
F of fospropofol (vs 5 mg/kg IV) ([3]; fospropofol 100 mg/kg PO): 3.46%
time stable at −20° C. in human plasma [4]: 464 days

CC(C)c1cccc(C(C)C)c1O [propofol, 2,6-diisopropylphenol]
propofol in plasma samples ([1]; 50 mg fospropofol intranasal, up to 2 hr): not quantifiable
highest propofol level in plasma ([2]; 50 mg fospropofol buccal, at 2 hours): about 500 nM
propofol in CSF ([2]; 50 mg fospropofol buccal, limit of quantitation 10 nM): only 2 samples are above the limit of quantitation
bioavailability ([3]; male, Sprague-Dawley, rat, plasma): ~100%
bioavailability ([3]; male, Sprague-Dawley, rat, plasma, po): 20 to 70%
bioavailability [3, 9]: ≥ 70%
F of propofol (vs 5 mg/kg IV fospropofol) ([3]; fospropofol 20 mg/kg PO): 22.7%
F of propofol (vs 5 mg/kg IV fospropofol) ([3]; fospropofol 30 mg/kg ID): 47.3%
F of propofol (vs 5 mg/kg IV fospropofol) ([3]; fospropofol 100 mg/kg ID): 141%
F of propofol (vs 5 mg/kg IV fospropofol) ([3]; fospropofol 100 mg/kg PO): 70.5%
time stable at −20° C. in human plasma [4]: 347 days
